Data from patent US8697379B2, “Lysosomotropic inhibitors of acid ceramidase” (MUSC Foundation for Research Development, priority 2008, dated 2014).
“And” between values parts separate entries of the source, which are not always exact repeats. Identical values can stand only once. Like-named read-outs stand apart in the source and are kept apart here.

Key:
[1] = biological target: T1, acid ceramidase (ACDase) (Homo sapiens, UniProt Q13510); test: Cellular activity of ACDase: MCF-7 cells treated with drug, then lysed and assayed; format: cell-based; design: C16-Cer as a substrate and MCF-7 cell lysate as an enzymatic source; endogenous in cells; host or cells: MCF-7 cell lysate; conditions: 10 μM, 2 h of treatment
T1 sequence (Q13510 22-142 limits assumed): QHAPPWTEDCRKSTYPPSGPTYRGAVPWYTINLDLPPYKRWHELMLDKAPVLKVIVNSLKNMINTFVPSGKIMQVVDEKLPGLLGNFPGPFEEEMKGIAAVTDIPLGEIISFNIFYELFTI
T1 sequence (Q13510 143-395 limits assumed): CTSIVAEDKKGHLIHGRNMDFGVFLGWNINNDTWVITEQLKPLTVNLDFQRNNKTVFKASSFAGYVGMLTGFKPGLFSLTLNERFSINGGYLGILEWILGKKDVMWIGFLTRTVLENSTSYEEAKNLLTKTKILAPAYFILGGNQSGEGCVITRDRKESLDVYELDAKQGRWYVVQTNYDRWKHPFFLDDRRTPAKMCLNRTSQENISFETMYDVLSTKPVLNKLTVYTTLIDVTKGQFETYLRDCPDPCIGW
Protocol: (§1) Effects of the inhibitors on the cellular activity of ACDase were determined using cell lysate from the cultured cells previously treated with increasing concentrations of drugs. For this type of assay, the drugs are allowed to enter the cell for a specific time, then cell lysates were prepared by homogenization and assays performed as described above. Effects on endogenous Cers and Sph were determined using LC-MS/MS analysis as previously described. See Bielawska et al., Bioorg. Med. Chem., 16, 1032-1045 (2008); and Bielawska et al., Methods, 39, 82-91 (2006). Final results were expressed as the level of the particular sphingolipid (SPL)/phospholipids (Pi) determined from the Bligh and Dyer lipid extract and expressed as SPLs/Pi (pmol/nmol).

[2] = tested on: lysosomes; test: Lysosomal stability by FACS analysis with LYSOTRACKER red; format: cell-based; conditions: for lysosomal stability: 30 μM
Protocol: Effects of Class E inhibitors on ACDase protein degradation were determined by Western blotting as previously described. See Bielawska et al., Bioorg. Med. Chem., 16, 1032-1045 (2008); Liu et al., Front. Biosci., 13, 2293-2298 (2008); and Holman et al., Cancer Chemother. Pharmacol., 61, 231-242 (2008). Lysosomal stability and mitochondrial stability were determined by FACS analysis using LYSOTRACKER™ red (Molecular Probes, Eugene, Oreg., United States of America) or JC-1 mitochondrial dye (Molecular Probes, Eugene, Oreg., United States of America) as previously described. See Holman et al., Cancer. Chemother. Pharmacol., 61, 231-242 (2008).

[3] = tested on: MCF-7 breast carcinoma cells; test: MTT cell viability assay in MCF-7 breast carcinoma cells; format: cell-based, human
Protocol: Class E compounds were administrated to cells capable of undergoing differentiation in amounts effective to induce differentiation of several cancer cell lines: MCF-7, PPC1, SCC14a, A549, and J3DR4. Cell viability assay was performed by the 3-(4,5-Dimethylthiazol-2-yl)-2,5-diphenyltetrazolium bromide (MTT) assay. Cells were seeded into 96-well plate overnight before treatment with increasing drug concentrations (0-100 μM) as previously described. See Hansen et al., J. Immunol. Methods, 119, 203-210 (1989). After treatment, plates were incubated for an additional period of time (24-72 h). Changes in cell numbers were determined and expressed as a percentage of the untreated controls.
Class E prodrugs were administrated to MCF-7 cells capable of undergoing differentiation in amounts effective to induce differentiation. Cell viability assay was performed by the MTT assay. Cells were seeded into 96-well plate overnight before treatment with increasing drug concentrations (0-100 μM) as previously described. See Hansen et al., J. Immunol. Methods, 119, 203-210 (1989). After treatment, plates were incubated for an additional period of time (24-72 h). Changes in cell numbers were determined and expressed as a percentage of the untreated controls. 50% inhibitory concentrations were determined by comparing cell number changes in prodrug treated samples to control samples.

[4] = tested on: cellular sphingolipids (Cn-Cer, Sph, S1P) in MCF-7 cells; test: Endogenous ceramide, Sph and S1P levels in MCF-7 cells by LC-MS/MS; format: cell-based, human
Protocol: as §1

[5] = biological target: T1, acid ceramidase (ACDase); test: In vitro ACDase activity assay, release of radioactive palmitic acid from [3H]C16-Cer in MCF-7 cell lysate; format: biochemical; design: C16-Cer as a substrate and MCF-7 cell lysate as an enzymatic source; endogenous in cells; host or cells: MCF-7 cell lysate
Protocol: The in vitro assay was carried out according to a previously described procedure (see Zeidan et al., J. Biol. Chem., 281, 24695-24703 (2006)) using [^3H] C16-Cer as a substrate and MCF-7 cell lysate as an enzymatic source. Briefly, cell lysate was prepared under acidic conditions (i.e., pH 4.5, 50 mM sodium acetate, 5 mM magnesium chloride, 1 mM EDTA and 0.5% Triton X-100), and protein level was determined using BCA protein assay kit (Pierce, Rockford, Ill., United States of America). ACDase activity was determined based on the amount of the released radioactive palmitic acid counted by LS 6500 multi-purpose scintillation counter (Beckman Coulter, Inc., Fullerton, Calif., United States of America). The results are presented as percentage of control.

[6] = tested on: Caspase 3/7; test: Apo-ONE Homogeneous Caspase 3/7 assay in MCF-7 cells; format: cell-based, human; conditions: 24 h incubation
Protocol: The apoptotic effect of LCL464 was also investigated in MCF-7 cells via its effect on Caspase 3/7, a group of cysteine proteases that mediate execution. This can be activated by apoptotic signals from both death receptor and intracellular/mitochondrial pathways. Briefly, MCF-7 cells were seeded at a density of 5×10^3/50 μL/well overnight in 96 well plates. Then cells were treated with vehicle or diluted LCL464. After 8 and 24 hours incubation, Caspase 3/7 activities were measured using the Apo-ONE Homogeneous Caspase 3/7 Assay Kit according to the manufacturer's instructions (Promega, Madison, Wis., United States of America). LCL464 causes a dose dependent induction of apoptosis following 24 h incubation, causing increase of Caspase 3/7 activities to 140% and 200% for 10 μM and 20 μM, respectively.

[7] = Breakdown of prodrugs under the assay conditions; format: in vitro ADME; conditions: under the various assay conditions; preliminary
[8] = tested on: L929 cells; test: TNF-α induced PGE2 release from L929 mouse fibroblast cells; format: cell-based; conditions: TNF-α treated L929 mouse fibroblast cells; preliminary data
[9] = tested on: lysosomes; conditions: previously studied non-Class E inhibitor; Bielawska et al. 2008; cited from earlier work
[10] = 48 hours of treatment, Example 6, read-out: IC50, MCF-7 cell growth (50% of surviving cells as compared to the control)
[11] = MCF-7 cells, MTT, 24 hours, Example 7, hydrochloride, read-out: IC50/24 h
[12] = 10 μM, 5 hours, and time course

With `CN(C)CCCCCCCCCCCC(=O)N[C@H](CO)[C@H](O)c1ccc([N+](=O)[O-])cc1` [LCL464, (1R,2R)-2-[N-(12′-N,N-dimethylamino-dodecanoyl)-amino]-1-(4″-nitrophenyl)-1,3-propandiol] the “ACDase inhibition at the cellular level” value [1] was 65%, the “lysosomal dysfunction (LYSOTRACKER Red fluorescence)” value ([2]; 10 μM, 1 and 5 hours of treatment) was “did not cause lysosomal dysfunction” and the lysosomal stability ([2]; 1 h) was 40%. The lysosomal stability ([2]; 5 h) was 61%, the lysosomal stability ([2]; 24 h) was > 100% and the IC50 [3, 10] was 10.2 µM. The IC50 ([3]; 72 hr treatment, Example 6, read-out: IC50, MCF-7 cell growth) was 7.2 µM, the “level of C18-Cer, % of control” value ([4]; 50 μM, at 24 hours) was ~900% and the “level of C16-Cer (percentage of control)” value ([4]; 50 μM, early effect) was ~240%. For the same molecule, the “concentration at which elevation of C18-Cer was observed” value ([4]; 24 hours, dose range 0-50 μM) was “above 20 μM”, the “inhibition of ACDase in vitro” value ([5]; 50 μM inhibitor, [3H]C16-Cer substrate) was 55% and the “Caspase 3/7 activities (percentage of control)” value ([6]; 10 μM) was 140%. For the same molecule, the “Caspase 3/7 activities (percentage of control)” value ([6]; 20 μM) was 200%.
With `CCCCCCCCCCCCCC(=O)N[C@H](CO)[C@H](OC(=O)CN(C)C)c1ccc([N+](=O)[O-])cc1.Cl` [LCL522, (1R,2R)-2-[N-tetradecanoyl)-amino]-1-(4″-nitrophenyl)-1,3-propandiol-1-O-dimethylglycine hydrochloride] the IC50 [3, 11] was ~6.5 µM and 6.5 µM.
For `CCCCCCCCCCCCCC(=O)N[C@H](COC(=O)CN(C)C)[C@H](OC(=O)CN(C)C)c1ccc([N+](=O)[O-])cc1.Cl` [LCL521], the “breakdown / metabolism of the prodrug” value [7] was “slowly metabolized to the mono-ester LCL581 and B13”, the “delivery to the lysosomes (LYSOTRACKER Red fluorescence)” value ([2]; 5 μM or 10 μM, 1 hour) was “appears to be delivered to the lysosomes” and the “cellular level of Sph and S1P” value [4, 12] was “decreased”. For the same molecule, the “levels of pro-apoptotic C16- and C18-Cer and total ceramide” value [4, 12] was “increased” and the “effect on acid ceramidase activity in vitro” value ([5]; concentration dependent (FIG. 13)) was “inhibited acid ceramidase in vitro”.
In the case of `CCCCCCCCCCCCCC(=O)N[C@H](C)[C@@H](O)c1ccccc1` [D-MAPP, D-erythro-2-(N-myristolyamino)-1-phenyl-1-propanol], the “release of PGE2” value [8] is reported as “inhibited”.
With `CCCCCCCCCCCCCC(=O)N[C@H](COC(=O)CN(C)C)[C@H](OC(=O)CN(C)C)c1ccc([N+](=O)[O-])cc1.Cl` [LCL521, (1R,2R)-2-[N-tetradecanoyl)-amino]-1-(4″-nitrophenyl)-1,3-propandiol-1,3-O-bis-dimethylglycine hydrochloride] the IC50 [3, 11] was ~8.9 µM and 8.9 µM, the IC50 ([3]; MCF-7 cells, MTT, 48 hours, Example 7, read-out: IC50/48 h) was 8.67 µM and the IC50 ([3]; MCF-7 cells, MTT, 72 hours, Example 7, read-out: IC50/72 h) was 7.45 µM.
For `CCCCCCCCCCCCCCN[C@H](CO)[C@H](O)c1ccc([N+](=O)[O-])cc1` [LCL204, (1R,2R)-2-N-(tetradecylamino)-1-(4′-nitrophenyl)-1,3-propandiol], the “ACDase inhibition at the cellular level” value [1] is given as “about 35%” and the “lysosomal stability as compared to the control (permanent destabilization)” value [9] is given as ~90%.
With `CCCCCCCCCCCCCC(=O)N[C@H](CO)[C@H](OC(=O)CN(C)C)c1ccc([N+](=O)[O-])cc1.Cl` [LCL522] the “breakdown / metabolism of the prodrug” value [7] was “breaks down under the various assay conditions to form B13” and the “regulation of cellular sphingolipids” value ([4]; 10 μM, 5 hours) was “behaved similarly to B13”.
For `O=C(CCCCCCCCCCCN1CCOCC1)N[C@H](CO)[C@H](O)c1ccc([N+](=O)[O-])cc1` [LCL449, (1R,2R)-2-[N-(12′-{1″-morpholine}-dodecanoyl)-amino]-1-(4″-nitrophenyl)-1,3-propandiol], the IC50 [3, 10] was 49.9 µM.
